Measured values published in paper PMC3771382 (ChemMedChem, 2012).

Experiments:
human GLP-1R = human GLP-1R (Homo sapiens, UniProt P43220); assay: RIP1-CRE-Luc luciferase reporter; type: cell-based; conditions: HEK-GLP-1R cells transfected with RIP1-CRE-Luc; 4 h exposure
[1] = test system: dipeptidyl peptidase IV (DPP-IV); conditions: ref [8],[9]; cited from earlier work
[2] = ref [8],[9]; cited from earlier work

Chain of human GLP-1R (P43220 24-463): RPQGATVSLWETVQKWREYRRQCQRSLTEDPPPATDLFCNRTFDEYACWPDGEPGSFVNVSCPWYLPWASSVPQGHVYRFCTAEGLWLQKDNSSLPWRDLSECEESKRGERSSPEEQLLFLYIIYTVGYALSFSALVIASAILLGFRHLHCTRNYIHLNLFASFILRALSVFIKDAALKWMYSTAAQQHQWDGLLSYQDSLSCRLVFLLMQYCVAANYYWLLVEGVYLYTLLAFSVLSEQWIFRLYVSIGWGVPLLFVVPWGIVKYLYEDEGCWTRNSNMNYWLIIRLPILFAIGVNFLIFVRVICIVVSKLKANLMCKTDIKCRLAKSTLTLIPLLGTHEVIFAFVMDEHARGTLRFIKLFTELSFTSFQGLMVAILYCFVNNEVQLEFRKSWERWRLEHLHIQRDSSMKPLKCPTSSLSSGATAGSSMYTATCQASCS

| Compound | luciferase response (in words) (human GLP-1R) | t1/2, degradation by DPP-IV [1] [min] | fraction of secreted GLP-1 surviving intact to the systemic circulation [2] |
| --- | --- | --- | --- |
| CC[C@H](C)[C@H](NC(=O)[C@H](Cc1ccccc1)NC(=O)[C@H](CCC(=O)O)NC(=O)[C@H](CCCCNC(=O)OC[C@H]1O[C@H](n2cnc3cc(C)c(C)cc32)[C@H](O)[C@@H]1OP(=O)(O)O[C@H](C)CNC(=O)CC[C@@]1(C)/C2=C(\C)C3=N/C(=C\C4=NC(=C(/C)C5=N[C@@](C)([C@H](N2)[C@@H]1CC(N)=O)[C@@](C)(CC(N)=O)[C@@H]5CCC(N)=O)/[C@@](C)(CC(N)=O)[C@@H]4CCC(N)=O)C(C)(C)[C@@H]3CCC(N)=O)NC(=O)[C@H](C)NC(=O)[C@H](C)NC(=O)[C@H](CCC(N)=O)NC(=O)CNC(=O)[C@H](CCC(=O)O)NC(=O)[C@H](CC(C)C)NC(=O)[C@H](Cc1ccc(O)cc1)NC(=O)[C@H](CO)NC(=O)[C@H](CO)NC(=O)[C@@H](NC(=O)[C@H](CC(=O)O)NC(=O)[C@H](CO)NC(=O)[C@@H](NC(=O)[C@H](Cc1ccccc1)NC(=O)[C@@H](NC(=O)CNC(=O)[C@H](CCC(=O)O)NC(=O)[C@H](C)NC(=O)[C@@H](N)Cc1c[nH]cn1)[C@@H](C)O)[C@@H](C)O)C(C)C)C(=O)N[C@@H](C)C(=O)N[C@@H](Cc1c[nH]c2ccccc12)C(=O)N[C@@H](CC(C)C)C(=O)N[C@H](C(=O)N[C@@H](CCCNC(=N)N)C(=O)NCC(=O)N[C@@H](CCCNC(=N)N)C(N)=O)C(C)C [compound 1] | concentration-dependent response |  |  |
| cyanocobalamin [B12] | did not produce any response |  |  |
| glucagon-like peptide-1 (7–36) amide [GLP-1] |  | 1 to 2 | 10–15% |
